Assay results: US20220119375A1, “3-ARYLOXY-3-ARYL-PROPYLAMINE COMPOUND AND USES THEREOF” (Zhangzhou Pien Tze Huang Pharmaceutical Co., Ltd., priority 2018, published 2022)
Read-outs that look alike come from different tables or passages of the source.

Columns and labels:
TRPA1 = target: T1, TRPA1 (Mus musculus, UniProt Q8BLA8); assay: IonWorks Barracuda (IWB) automated patch clamp detection of TRPA1 inhibitory activity; format: cell-based, mouse (mTRPA1); conditions: automated patch clamp (IWB)
T1 construct: expressed in transfected cells; host or cells: HEK293
T1 sequence (Q8BLA8 whole entry): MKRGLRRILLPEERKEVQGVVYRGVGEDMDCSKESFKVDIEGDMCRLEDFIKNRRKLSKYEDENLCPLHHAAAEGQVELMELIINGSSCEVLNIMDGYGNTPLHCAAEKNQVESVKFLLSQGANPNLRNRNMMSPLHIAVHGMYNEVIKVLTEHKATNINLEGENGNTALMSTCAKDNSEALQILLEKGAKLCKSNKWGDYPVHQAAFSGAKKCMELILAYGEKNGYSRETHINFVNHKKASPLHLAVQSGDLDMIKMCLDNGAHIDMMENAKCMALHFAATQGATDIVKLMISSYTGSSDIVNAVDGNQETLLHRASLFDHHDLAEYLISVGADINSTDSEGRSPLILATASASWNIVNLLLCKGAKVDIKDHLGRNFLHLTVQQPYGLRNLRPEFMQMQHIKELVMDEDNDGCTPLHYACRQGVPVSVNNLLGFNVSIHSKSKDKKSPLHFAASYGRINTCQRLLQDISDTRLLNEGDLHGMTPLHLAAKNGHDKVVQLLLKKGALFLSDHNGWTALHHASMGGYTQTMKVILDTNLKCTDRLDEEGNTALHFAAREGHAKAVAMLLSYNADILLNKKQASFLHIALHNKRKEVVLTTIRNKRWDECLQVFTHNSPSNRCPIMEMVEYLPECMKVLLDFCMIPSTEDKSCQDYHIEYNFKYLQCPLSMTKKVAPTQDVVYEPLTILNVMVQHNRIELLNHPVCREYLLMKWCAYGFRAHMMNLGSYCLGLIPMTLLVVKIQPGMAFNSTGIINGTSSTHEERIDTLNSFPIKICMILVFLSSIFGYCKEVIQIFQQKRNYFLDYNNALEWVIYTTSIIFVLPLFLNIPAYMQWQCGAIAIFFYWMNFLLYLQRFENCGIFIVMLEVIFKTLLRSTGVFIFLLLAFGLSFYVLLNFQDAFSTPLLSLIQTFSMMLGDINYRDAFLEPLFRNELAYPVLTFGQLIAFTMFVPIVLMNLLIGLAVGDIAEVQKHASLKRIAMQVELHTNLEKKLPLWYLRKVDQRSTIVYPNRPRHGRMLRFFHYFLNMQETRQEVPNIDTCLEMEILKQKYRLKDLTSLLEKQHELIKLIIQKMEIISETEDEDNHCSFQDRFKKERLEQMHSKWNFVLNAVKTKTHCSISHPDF
Method: The inhibitory activity of some compounds in the Examples of present invention on transient receptor potential channel protein TRPA1 was tested in this example. The compound of formula A (WO2010075353) was used as a positive control compound: […]
IonWorks Barracuda (IWB) automated patch clamp detection was used as test method: HEK293 cells stably expressing TRPA1 were placed in DMEM medium containing 15 μg/mL Blasticidin S HCl, 200 μg/mL Hygromycin B and 10% FBS in the T175 culture flask, and cultured in 37° C., 5% CO2 incubator. When the cell density reached about 80%, the culture medium was removed, rinsed with phosphate buffered saline (PBS) without calcium and magnesium. 3 mL of Trypsin was added to digest for 2 min, 7 mL of culture medium was added to terminate the digestion. The cells were collected to 15 mL centrifuge tube and centrifuged at 800 rpm for 3 min. After the supernatant was removed, the cells were added to appropriate volume of extracellular fluid for re-suspending, and the cell density was controlled at 2-3×10^6/mL for IWB experiment. Extracellular fluid formulation (in mM): 140 NaCl, 5 KCl, 1 MgCl2, 10 HEPES, 0.5 EGTA, 10 Glucose (pH 7.4); intracellular fluid formulation (in mM): 140 CsCl, 10 HEPES, 5 EGTA, 0.1 CaCl2, 1 MgCl2 (pH 7.2). 28 mg/mL of amphotericin B was freshly prepared with DMSO on the day of experiment, and then final concentration of 0.1 mg/mL was prepared with intracellular fluid.
Population patch clamp (PPC) plate was used in IWB experiment. The entire detection process was automatically carried out by the instrument. Extracellular fluid was added into 384 wells of PPC plate, and 6 µL of the intracellular fluid was added into plenum (under the PPC plate), 6 µL of cell fluid was added for sealing test, and finally the intracellular fluid in plenum was replaced with amphotericin B-containing intracellular fluid to establish a whole-cell recording mode after perforating sealed cells. The sampling frequency for recording TPRA1 current was 10 kHz, the cells were clamped at 0 mV, the voltage stimulation command (channel protocol) was a ramp voltage from −100 mV to +100 mV for 300 ms. This voltage stimulation was applied every 10 s, mTRPA1 current was induced by 300 µM AITC.
Data recording and current amplitude measurement export were carried out by IWB software (version 2.5.3, Molecular Devices Corporation, Union City, Calif.). No statistics was recorded for holes with sealing impedance lower than 20 MΩ. The original current data was corrected by software for leakage reduction. TRPA1 current amplitude was measured at +100 mV. […] If IC50 value of HC030031 exceeded 3 times the average IC50 value previously obtained on each plate, it would be re-tested. The dose-effect curve of compounds and IC50 were fitted and calculated by GraphPad Prism 5.02 (GraphPad Software, San Diego, Calif.).

HepG2 cell = assay: Cytotoxicity test (CCK-8), hepatotoxicity; format: cell-based; conditions: Homo sapiens, 72 h
Method: (§1) HepG-2 and SH—SY5Y cells were placed in 10 cm dish and cultured at 37° C., 5% CO2 in a cell incubator. Trypsin was used to digest and resuspend cells and cells were counted. The cells were transferred to 96-well plate with 8000 cells in a well (100 μl/well). A serial of gradient concentration dilutions of compound with 2-fold dilution were prepared, and the system was 100 μL/well. The supernatant of cell culture system in the 96-well plate was removed on the first day, and fresh-prepared drug concentration system was add into culture plate wells (duplicate wells were set). The cells were cultured at 37° C., 5% CO2 in a cell incubator for 72 h. After the cell culture was completed, the supernatant of cell culture system was removed from 96-well plate, 100 μl of detection solution containing 10% CCK-8 medium was added into each well, and the cells were cultured at 37° C., 5% CO2 in a cell incubator for 1 h. Microplate reader was used to measure the absorbance at 450 nm. Data was processed to calculate cytotoxicity, and IC50 was calculated by GraphPad Prism. […]
(§2) A (Dosing): the absorbance of wells containing cells, CCK-8 solution and drug solution.
(§3) A (control): the absorbance of wells containing medium and CCK-8 solution and without cells.
(§4) A (0 Dosing): the absorbance of wells containing cells and CCK-8 solution but without drug solution.

SH—SY5Y cells = assay: Cytotoxicity test (CCK-8), neurotoxicity; format: cell-based; conditions: Homo sapiens, 72 h
Method: as §1, §2, §3, §4

[1] = system: C57 mice, hot plate pain model; assay: mice hot plate pain model; format: in vivo, mouse; conditions: 10 mg/kg intraperitoneal, hot plate 55±0.1° C., within 60 minutes
Method: SPF-grade C57 male mice were placed at hot plate with constant 55±0.1° C. […] If the pain reaction of mice was observed, the mice were taken out immediately to prevent mice from scalding. […] The test compounds were freshly prepared on the day of administration. 0.9% NaCl physiological saline solution was prepared as solvent for later use. Appropriate amount of test compounds were added into required volume of physiological saline and fully suspended, and the concentration of the drug compound in preparation was 1 mg/ml. The standard volume of administration to mice was 10 ml/kg (or 0.1 ml/10 g). […] The administration volume was 10 ml/kg. […] Hot plate observation index: the reaction time of mice on the hot plate at 55±0.1° C. (Time latency). Measurement and recording were conducted at 3 h before administration and 15 min, 30 min, and 60 min after administration. Maximum possible effect (MPE) % was used to evaluate analgesic effect of each compound, i.e., MPE %=[(Post drug latency-baseline latency)/(30-baseline latency)]×100. MPE % at different time points was recorded. The higher the value of MPE % was, the stronger the analgesic effect of the compound was.

Row | Structure (SMILES) | IC50 (TRPA1; read-out: IC50 on TRPA1) [µM] | IC50 (HepG2 cell) [µM] | IC50 (SH—SY5Y cells) [µM] | IC50 (TRPA1; HEK293 cells stably expressing TRPA1, AITC-induced current at +100 mV, read-out: IC50 (μM) on TRPA1 in the patch clamp detection test) [µM] | analgesic effect (MPE %) on hot plate [1]
1 | CNCC[C@H](Oc1cccc2ccccc12)c1cccs1 [Duloxetine (S configuration), Duloxetine] | 24.7 | 33 | 28 | – | –
2 | CNCC[C@H](Oc1cccc2ccoc12)c1cccs1 [Compound IC-1, (S)-3-(benzofuran-7-yloxy)-N-methyl-3-(thiophen-2-yl)propyl-1-amine] | – | – | – | 1 to 5 | stronger than those of gabapentin and duloxetine
